Experiments:
NHEK [1] = test: In vitro keratinocyte migration assay; assay type: cell-based, human; conditions: mitomycin-treated wounded NHEK; OSM 10 ng/ml, IL-31 100 ng/ml
Method: Keratinocytes were cultured in wells pre-coated with type I collagen (200 μg/ml, Institut Jacques Boy, Reims, France) until they reached 80% confluency. Cells were starved for 48 h in Keratinocyte SFM and then treated with 10 μg/ml of mitomycin C (Sigma) for 2 h to prevent cell proliferation. A cell-free area was created by scraping the keratinocyte monolayer with a plastic pipette tip. Keratinocytes migration to the cell-free area was evaluated after 48 h of culture in the absence or presence of EGF or OSM. Using an inverted phase contrast microscope. The number of migrating keratinocytes was counted in 4 non-overlapping fields. Values represent the mean±SEM of cells per mm^2 beyond the frontiers of the in vitro injury. Student's t test was used for statistical analysis.

NHEK [2] = test: Chemokine production by NHEK (ELISA), OSM; assay type: cell-based, human; conditions: 48 h NHEK under OSM stimulation
Method: IL-1beta, IL-6, IL-8, IL-10, IL-12p70, TNF alpha, ENA-78, MIP 3 beta were measured by specific ELISA in 48 h NHEK culture supernatants. Cells were cultured in the presence or not of OSM. Dose-response (0.4 to 25 ng/ml) and kinetic (6 to 96 h) studies of ENA78 production were also performed.

RHE [3] = test: RHE histology and immunohistochemistry (Example 14); assay type: cell-based, human; conditions: single cytokines, 72 h
Method: (§1) Normal human epidermal keratinocytes (NHEK) were obtained as previously described, from surgical samples of healthy breast skin (Boniface et al, 2005). NHEK were cultured to 80% of confluence allowing the expression of a large panel of keratinocyte differentiation markers, and then starved for 24 h in Keratinocyte SFM containing 0.03 mM Ca^2+ (Invitrogen Life Technologies, Cergy Pontoise, France) before stimulation. Confluent differentiated cells were stimulated with or without recombinant IL-17A, OSM, TNFα, IL-22 and IL-1α alone at maximum effective concentrations (reported previously around 10 ng/ml (Boniface et al, 2005 and Boniface et al, 2007)) or in combination (R&D systems Europe, Lille, France) during 2 h to 72 h for mRNA quantification. RHE were generated on polycarbonate culture inserts, from surgical samples of paediatric foreskins as previously described (Guenou et al., 2009). RHE were stimulated with or without recombinant IL-17A, OSM, TNFα, IL-22 and IL-1α alone or in combination, with or without a Janus protein Tyrosine Kinases (JAKs) inhibitor 10 μM (Calbiochem, 420099), during 24 h for mRNA quantification or during 72 h for immunohistological analysis.
RHE were washed and fixed with formaldehyde solution. Fixed tissues were dehydrated with increasing ethanol concentrations, embedded in paraffin and sections were carried out using a microtome (4 μm thickness). The sections were deparaffinised, washed and incubated with hydrogen peroxide. The sections were incubated with anti-CK10 (SantaCruz, SC-23877), anti-LOR (Eurogentec, PRB-145P), anti-FLG (SantaCruz, SC-66192), anti-IVL (Biomedical Technologies, BT-601), anti-S100A7 (Clinisciences, IMG-409A) and then detected using a biotin-conjugated secondary antibody (Vector, RTU vectastain universal quick kit, PK-7800). After peroxidase-conjugated streptavidine (Vector, RTU vectastain universal quick kit, PK-7800) and peroxidase substrate addition (Dako, Substrat hyper-sensible AEC+), nuclei were counter-stained using a solution of hematoxylin. Sections were observed using a NIKON E400 microscope. The images were captured using a NIKON DS-Ril and processed with NIS-Elements 3.10 software.

NHEK [4] = test: S100 proteins expression in NHEK (Western blot); assay type: cell-based, human; conditions: 10 ng/ml OSM, day 2 and day 4
Method: […] Cell lysis was performed with 50 mM Tris HCl pH 7.4, 150 mM NaCl, 1 mM EDTA, 1% Triton, 1% sodium deoxycholate, 0.1% SDS, 1 mM PMSF, 1 mM sodium orthovanadate, 1% protease inhibitors. S100A7, S100A8 and S100A9 were detected by immunochemistry as described above. Ponceau red staining was used to control loading homogeneity.

MAP kinase (ERK1/2) = test: MAP kinase phosphorylation in NHEK (Western blot); assay type: cell-based, human; conditions: NHEK stimulated with OSM
Method: For STAT3 and MAPK phosphorylation, NHEK were stimulated for 15 min in the presence of the indicated cytokine. Cells were lysed in SDS sample buffer (62.5 mM Tris-HCl pH 6.8, 2% SDS, 10% glycerol, 50 mM DTT, 0.1% bromophenol blue), sonicated and then submitted to SDS-PAGE and transferred onto an Immobilon membrane. The membranes were subsequently incubated overnight with the primary antibody, before being incubated with the appropriate peroxidase-labelled secondary antibody for 60 min. The reaction was visualized by chemiluminescence according to the manufacturer's instructions. Membranes were stripped in 0.1 M glycine pH 2.8 for 2 h and neutralized in 1 M Tris-HCl pH 7.6 before reblotting. For neutralizing experiments, NHEK were incubated with the appropriate antibodies for 2 h before stimulation.

RHE [5] = test: KDM mRNA in reconstituted human epidermis (RT-PCR); assay type: cell-based; conditions: 24 h
Method: as §1
NHEK, RHE and murine skin total RNA were isolated using NucleoSpin® RNA II kit (Macherey-Nagel, Hoerdt, France) and reverse-transcribed with SuperScript® II Reverse Transcriptase (Invitrogen Life Technologies) according to the manufacturer's instructions. Quantitative real time PCR was carried out using the LightCycler-FastStart DNA Master SYBR® Green I kit on LightCycler 480 (Roche Diagnostics, Meylan, France). The reaction components were 1×DNA Master Mix, and 0.5 μM of HPLC purified sense and anti-sense oligonucleotides purchased from Eurogentec (Eurogentec France, Angers, France), designed using Primer3 software. The stability of the housekeeping gene expression has been assessed by using GeNorm algorithm. […] Thus samples were normalized to G3PDH housekeeping gene and reported according to the ΔΔCT method as RNA fold increase: 2^ΔΔCT=2^ΔCT sample−ΔCT reference.

[6] = test system: reconstituted human epidermis (RHE); test: Reconstituted human epidermis model, histology and immunohistochemistry (OSM); assay type: cell-based
Method: For histological and immunohistochemical studies, RHE, grown for 12 days at the air-medium interface, were purchased from SkinEthic Laboratories (Nice, France). […] As recommended, RHE were grown for 1 day in SkinEthic growth medium prior to stimulation in the absence or presence of OSM for 4 days. They were then fixed in a balanced 10% formalin solution and embedded in paraffin. Four micron vertical sections were stained with heamatoxylin/eosin or with specific Ab and peroxidase-conjugated Antibodies, and counterstained with haematoxylin according to standard protocols (Rosdy, Bertino et al. 1997). Anti-K10 keratin and anti-filaggrin monoclonal Antibodies were from Lab Vision Corporation (Fremont, Calif., USA).

## OSM: human recombinant oncostatin M, cytokine of the IL-6 family
NHEK [1]
  Keratinocyte migration to the cell-free area: important migration of NHEK, similar to that observed in the presence of EGF
NHEK [2]
  Production of chemokines CXCL5 and CXCL8: clearly enhanced
RHE [3]; RHE
  CK10, LOR and FLG expression (immunohistology): decreases expression of CK10, LOR and FLG
  IVL expression (immunohistology): strongly
  S100A7 expression (immunohistology): strongly induced
RHE [3]
  RHE histology: significant keratinocyte hyperplasia
NHEK [4]
  S100A7, S100A8, S100A9 protein expression: increased expression of studied proteins
MAP kinase (ERK1/2)
  MAP kinase phosphorylation: quickly increased the MAP kinase phosphorylation
RHE [5]
  Expression of KDM mRNA (CK10, CK1, LOR, FLG): most active cytokines
  S100A7 mRNA expression: strongly induced
[6]; 10 ng/ml OSM, 4 days
  Hyperplasia / overall thickness of RHE: triggered the hyperplasia of the keratinocytes layers
[6]; RHE treated with OSM
  Ki67 expression: not induced
[6]; RHE, 10 ng/ml OSM, 4 days
  Filaggrin and keratin 10 expression (immunohistochemistry): decrease of filaggrin and keratin 10 expression
  S100A7 protein (immunohistochemistry): S100A7 protein up-regulation

— patent publication US10080779B2, “Method for increasing the expression of anti-microbial peptides by keratinocytes comprising administering a composition comprising IL-17, TNF-alpha and OSM” (Universite D'Angers, priority 2004, dated 2018)
